Data taken from US20260001928A1 (CORTERIA PHARMACEUTICALS, priority 2022, published 2026).
*1 amine or outer side, *2 acyl side, *3 side chain or, on linkers, in order; H or OH if unused. Where a SMILES comes first, the peptide text is derived from it. Side-chain parts run from the residue outwards. [ ]: non-standard residue; d: D form. The star is where a group is joined. C20 diacid = O=C(O)CCCCCCCCCCCCCCCCCCC(=O)*; C18 diacid = O=C(O)CCCCCCCCCCCCCCCCC(=O)*; C16 diacid = O=C(O)CCCCCCCCCCCCCCC(=O)*; γGlu = O=C(O)[C@H](CCC(=O)[*:2])N[*:1]; C14 diacid = O=C(O)CCCCCCCCCCCCC(=O)*; NMeI = CC[C@H](C)[C@H](NC)C(=O)O; Api = NC1(C(=O)O)CCNCC1; AEEA = NCCOCCOCC(=O)O; Aib = CC(C)(N)C(=O)O; Propionyl = CCC(=O)*

Key:
human CRF2a receptor = molecular target: T1, human CRF2a receptor (Homo sapiens, UniProt Q13324); assay: Activity at human CRF2a receptor, cAMP functional assay in TeloHEAC cells; assay type: cell-based; settings: TeloHEAC cells stably expressing human CRF2a receptor, relative to urocortin 2 (100 nM = 100%)
T1 construct: expressed in transfected cells; host or cells: TeloHEAC cells
T1 sequence (Q13324 1-411): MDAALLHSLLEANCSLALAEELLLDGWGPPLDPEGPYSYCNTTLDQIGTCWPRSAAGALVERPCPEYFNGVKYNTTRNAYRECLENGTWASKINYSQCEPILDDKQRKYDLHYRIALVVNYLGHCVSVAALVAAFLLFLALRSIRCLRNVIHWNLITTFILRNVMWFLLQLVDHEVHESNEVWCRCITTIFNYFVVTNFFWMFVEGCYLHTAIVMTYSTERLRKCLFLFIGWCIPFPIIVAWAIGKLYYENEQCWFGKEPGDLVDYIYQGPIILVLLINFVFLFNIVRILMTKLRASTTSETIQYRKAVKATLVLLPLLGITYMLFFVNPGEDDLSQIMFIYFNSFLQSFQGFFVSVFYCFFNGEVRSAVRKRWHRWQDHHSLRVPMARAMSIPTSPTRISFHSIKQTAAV
Outline: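 cAMP accumulation was measured by HTRF 665/620 nm ratio after 30 min at 37° C compound exposure (16 twofold dilutions) of CRF2a-expressing TeloHEAC cells, 10000/well, in HEPES-buffered HBSS plus IBMX. Activity was normalised to urocortin 2 at 100 nM (100%), and EC50 was the concentration giving half-maximal activation.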

CFR1R receptor = molecular target: T2, CFR1R receptor (Homo sapiens, UniProt P34998); assay: Activity at anti-target CFR1R receptor, cAMP assay in CRF1R-overexpression CHO-K1 cells; assay type: cell-based; settings: 100% = Sauvagine at 100 nM; for EC50: cAMP
T2 construct: host or cells: CHO-K1 (clone 2)
T2 sequence (P34998 24-415): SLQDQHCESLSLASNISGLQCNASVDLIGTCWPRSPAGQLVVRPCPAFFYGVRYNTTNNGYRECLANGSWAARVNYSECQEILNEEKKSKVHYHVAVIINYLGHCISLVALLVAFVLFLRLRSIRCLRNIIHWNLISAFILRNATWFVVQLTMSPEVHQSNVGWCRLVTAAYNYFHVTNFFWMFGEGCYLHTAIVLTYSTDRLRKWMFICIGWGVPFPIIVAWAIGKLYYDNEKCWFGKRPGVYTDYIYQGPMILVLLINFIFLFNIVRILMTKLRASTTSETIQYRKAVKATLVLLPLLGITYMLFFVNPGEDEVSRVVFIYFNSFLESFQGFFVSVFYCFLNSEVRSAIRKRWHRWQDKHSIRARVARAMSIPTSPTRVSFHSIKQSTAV
Outline: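 Grow clone 2 to near confluence at 37° C. under 5% CO2 in F12 (Hams) with 10% FBS and G418, harvest, and freeze in 10% DMSO. Thaw and plate at 4000 cells/well. Then proceed per the TeloHAEC method, normalising to Sauvagine 100 nM as maximum.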

| Compound | EC50 (human CRF2a receptor) [nM] | Emax (% I) (CFR1R receptor) | EC50 (CFR1R receptor) [nM] |
| --- | --- | --- | --- |
| CC[C@H](C)[C@H](NC)C(=O)N[C@H](C(=O)N[C@@H](CC(C)C)C(=O)N[C@@H](CO)C(=O)N[C@@H](CC(C)C)C(=O)N[C@@H](CC(=O)O)C(=O)N[C@@H](C(=O)N1CCC[C@H]1C(=O)N[C@H](C(=O)N[C@@H](CCCCN)C(=O)N[C@@H](CC(C)C)C(=O)N[C@@H](CCCCNC(=O)COCCOCCNC(=O)COCCOCCNC(=O)CC[C@H](NC(=O)CCCCCCCCCCCCCCCCC(=O)O)C(=O)O)C(=O)N[C@@H](CCCCN)C(=O)N[C@H](C(=O)N[C@@H](CC(C)C)C(=O)N[C@@H](CC(C)C)C(=O)N[C@@H](CCC(=O)O)C(=O)N[C@@H](CCC(N)=O)C(=O)N[C@@H](CCC(=O)O)C(=O)N[C@@H](CCCCN)C(=O)N[C@@H](CCC(N)=O)C(=O)N[C@@H](CCCCN)C(=O)NC(C)(C)C(=O)N[C@@H](CCC(N)=O)C(=O)N[C@@H](CCCNC(=N)N)C(=O)N[C@@H](CCC(=O)O)C(=O)N[C@@H](CCC(N)=O)C(=O)N[C@@H](C)C(=O)N[C@@H](CCC(=O)O)C(=O)N[C@H](C(=O)N[C@@H](CC(N)=O)C(=O)NC(C)(C)C(=O)N[C@@H](CCC(N)=O)C(=O)N[C@H](C(=O)N[C@@H](CC(C)C)C(=O)N[C@@H](C)C(=O)N[C@@H](CCC(N)=O)C(=O)N[C@H](C(N)=O)C(C)C)[C@@H](C)CC)[C@@H](C)O)[C@@H](C)CC)[C@@H](C)CC)C(C)C)C(C)C [compound 200] (H-[NMeI]VLSLD[dV]PIKLK([AEEA-AEEA-γGlu-C18 diacid])KILLEQEKQK[Aib]QREQAETN[Aib]QILAQV-NH2) | 0.71 | 2 | > 250 |
| CC[C@H](C)[C@H](NC(C)=O)C(=O)N[C@H](C(=O)N[C@@H](CC(C)C)C(=O)N[C@@H](CO)C(=O)N[C@@H](CC(C)C)C(=O)N[C@@H](CC(=O)O)C(=O)N[C@@H](C(=O)N1CCC[C@H]1C(=O)N[C@H](C(=O)N[C@@H](CCCCN)C(=O)N[C@@H](CC(C)C)C(=O)N[C@@H](CCCCNC(=O)CC[C@H](NC(=O)CCCCCCCCCCCCC(=O)O)C(=O)O)C(=O)N[C@@H](CCCCN)C(=O)N[C@H](C(=O)N[C@@H](CC(C)C)C(=O)N[C@@H](CC(C)C)C(=O)N[C@@H](CCC(=O)O)C(=O)N[C@@H](CCC(N)=O)C(=O)N[C@@H](CCC(=O)O)C(=O)N[C@@H](CCCCN)C(=O)N[C@@H](CCC(N)=O)C(=O)N[C@@H](CCCCN)C(=O)N[C@@H](C)C(=O)N[C@@H](CCC(N)=O)C(=O)N[C@@H](CCCNC(=N)N)C(=O)N[C@@H](CCC(=O)O)C(=O)N[C@@H](CCC(N)=O)C(=O)N[C@@H](C)C(=O)N[C@@H](CCC(=O)O)C(=O)N[C@H](C(=O)N[C@@H](CC(N)=O)C(=O)NC1(C(=O)N[C@@H](CCC(N)=O)C(=O)N[C@H](C(=O)N[C@@H](CC(C)C)C(=O)N[C@@H](C)C(=O)N[C@@H](CCC(N)=O)C(=O)N[C@H](C(N)=O)C(C)C)[C@@H](C)CC)CCNCC1)[C@@H](C)O)[C@@H](C)CC)[C@@H](C)CC)C(C)C)C(C)C [compound 169] (Ac-IVLSLD[dV]PIKLK([γGlu-C14 diacid])KILLEQEKQKAQREQAETN[Api]QILAQV-NH2) | 1.34 | 13 | > 250 |

Stronger by EC50 (human CRF2a receptor), values ahead:

| EC50 (human CRF2a receptor) [nM] | Emax (% I) (CFR1R receptor) | EC50 (CFR1R receptor) [nM] | Compound |
| --- | --- | --- | --- |
| 0.23 | 13 | > 250 | CCC(=O)N[C@H](C(=O)N[C@@H](CC(C)C)C(=O)N[C@@H](CO)C(=O)N[C@@H](CC(C)C)C(=O)N[C@@H](CC(=O)O)C(=O)N[C@@H](C(=O)N1CCC[C@H]1C(=O)N[C@H](C(=O)N[C@@H](CCCCN)C(=O)N[C@@H](CC(C)C)C(=O)N[C@@H](CCCCNC(=O)CC[C@H](NC(=O)CCCCCCCCCCCCCCC(=O)O)C(=O)O)C(=O)N[C@@H](CCCCN)C(=O)N[C@H](C(=O)N[C@@H](CC(C)C)C(=O)N[C@@H](CC(C)C)C(=O)N[C@@H](CCC(=O)O)C(=O)N[C@@H](CCC(N)=O)C(=O)N[C@@H](CCC(=O)O)C(=O)N[C@@H](CCCCN)C(=O)N[C@@H](CCC(N)=O)C(=O)N[C@@H](CCCCN)C(=O)N[C@@H](CCCCN)C(=O)N[C@@H](CCC(N)=O)C(=O)N[C@@H](CCCNC(=N)N)C(=O)N[C@@H](CCC(=O)O)C(=O)N[C@@H](CCC(N)=O)C(=O)N[C@@H](C)C(=O)N[C@@H](CCC(=O)O)C(=O)N[C@H](C(=O)N[C@@H](CC(N)=O)C(=O)N[C@@H](CCCCN)C(=O)N[C@@H](CCC(N)=O)C(=O)N[C@H](C(=O)N[C@@H](CC(C)C)C(=O)N[C@@H](C)C(=O)N[C@@H](CCC(N)=O)C(=O)N[C@H](C(N)=O)C(C)C)[C@@H](C)CC)[C@@H](C)O)[C@@H](C)CC)[C@@H](C)CC)C(C)C)C(C)C [compound 35] (Propionyl-VLSLD[dV]PIKLK([γGlu-C16 diacid])KILLEQEKQKKQREQAETNKQILAQV-NH2) |
| 0.15 | 63 | – | CC[C@H](C)[C@H](NC(C)=O)C(=O)N[C@H](C(=O)N[C@@H](CC(C)C)C(=O)N[C@@H](CO)C(=O)N[C@@H](CC(C)C)C(=O)N[C@@H](CC(=O)O)C(=O)N[C@@H](C(=O)N1CCC[C@H]1C(=O)N[C@H](C(=O)N[C@@H](CCCCN)C(=O)N[C@@H](CC(C)C)C(=O)N[C@@H](CCCCNC(=O)CC[C@H](NC(=O)CCCCCCCCCCCCCCCCCCC(=O)O)C(=O)O)C(=O)N[C@@H](CCCCN)C(=O)N[C@H](C(=O)N[C@@H](CC(C)C)C(=O)N[C@@H](CC(C)C)C(=O)N[C@@H](CCC(=O)O)C(=O)N[C@@H](CCC(N)=O)C(=O)N[C@@H](CCC(=O)O)C(=O)N[C@@H](CCCCN)C(=O)N[C@@H](CCC(N)=O)C(=O)N[C@@H](CCCCN)C(=O)NC(C)(C)C(=O)N[C@@H](CCC(N)=O)C(=O)N[C@@H](CCCNC(=N)N)C(=O)N[C@@H](CCC(=O)O)C(=O)N[C@@H](CCC(N)=O)C(=O)N[C@@H](C)C(=O)N[C@@H](CCC(=O)O)C(=O)N[C@H](C(=O)N[C@@H](CC(N)=O)C(=O)NC1(C(=O)N[C@@H](CCC(N)=O)C(=O)N[C@H](C(=O)N[C@@H](CC(C)C)C(=O)N[C@@H](C)C(=O)N[C@@H](CCC(N)=O)C(=O)N[C@H](C(N)=O)C(C)C)[C@@H](C)CC)CCNCC1)[C@@H](C)O)[C@@H](C)CC)[C@@H](C)CC)C(C)C)C(C)C [compound 208] (Ac-IVLSLD[dV]PIKLK([γGlu-C20 diacid])KILLEQEKQK[Aib]QREQAETN[Api]QILAQV-NH2) |
| 0.3 | 3 | > 250 | CC[C@H](C)[C@H](NC(C)=O)C(=O)N[C@H](C(=O)N[C@@H](CC(C)C)C(=O)N[C@@H](CO)C(=O)N[C@@H](CC(C)C)C(=O)N[C@@H](CC(=O)O)C(=O)N[C@@H](C(=O)N1CCC[C@H]1C(=O)N[C@H](C(=O)N[C@@H](CCCCN)C(=O)N[C@@H](CC(C)C)C(=O)N[C@@H](CCCCNC(=O)CC[C@H](NC(=O)CCCCCCCCCCCCCCC(=O)O)C(=O)O)C(=O)N[C@@H](CCCCN)C(=O)N[C@H](C(=O)N[C@@H](CC(C)C)C(=O)N[C@@H](CC(C)C)C(=O)N[C@@H](CCC(=O)O)C(=O)N[C@@H](CCC(N)=O)C(=O)N[C@@H](CCC(=O)O)C(=O)N[C@@H](CCCCN)C(=O)N[C@@H](CCC(N)=O)C(=O)N[C@@H](CCCCN)C(=O)N[C@@H](CCCCN)C(=O)N[C@@H](CCC(N)=O)C(=O)N[C@@H](CCCNC(=N)N)C(=O)N[C@@H](CCC(=O)O)C(=O)N[C@@H](CCC(N)=O)C(=O)N[C@@H](C)C(=O)N[C@@H](CCC(=O)O)C(=O)N[C@H](C(=O)N[C@@H](CC(N)=O)C(=O)N[C@@H](CCC(=O)O)C(=O)N[C@@H](CCC(N)=O)C(=O)N[C@H](C(=O)N[C@@H](CC(C)C)C(=O)N[C@@H](C)C(=O)N[C@@H](CCC(N)=O)C(=O)N[C@H](C(N)=O)C(C)C)[C@@H](C)CC)[C@@H](C)O)[C@@H](C)CC)[C@@H](C)CC)C(C)C)C(C)C [compound 56] (Ac-IVLSLD[dV]PIKLK([γGlu-C16 diacid])KILLEQEKQKKQREQAETNEQILAQV-NH2) |
